Key:
FAK recombinant protein = FAK recombinant protein (Homo sapiens (Human), UniProt Q05397); experiment: Inhibitory activity against FAK enzyme (HTRF, TK substrate); assay type: biochemical
Protocol: A compound serially diluted with DMSO was mixed with a FAK recombinant protein. After the mixture was left to stand at room temperature for 10 min, a biotin-labeled TK substrate (TK) and ATP were added. […] The inhibition percentage and IC50 of the compound were calculated compared to the DMSO control group.

PC3 cells [1] = experiment: PC3 cell proliferation, 2D activity assay (Cell Titer-Lumi, 72 h); assay type: cell-based, human
Protocol: (§1) 2D activity assay: 1200 PC3 cells were seeded in a 96-well plate. After overnight adherence culture, A compound serially diluted was added. […] The growth of the cells was evaluated, and the IC50 of the compound inhibiting cell growth was calculated. 3D activity assay: PC3 cells were seeded in a 96-well plate at 1200 cells/well, and 3D culture was performed. 14 days after a compound serially diluted was added, the growth of the cells was measured. The inhibition percentage and IC50 of the compound were calculated compared to the DMSO control group.

PC3 cells [2] = experiment: PC3 cell proliferation, 3D activity assay (3D culture, 14 days); assay type: cell-based, human; details: read-out: 3D inhibitory activity against PC3 cells IC50
Protocol: as §1

[3] = Homo sapiens, PC-3, read-out: 2D inhibitory activity against PC3 cells IC50
[4] = read-out: 2D inhibitory activity against PC3 cells IC50

FAK recombinant protein, sequence (Q05397 whole entry): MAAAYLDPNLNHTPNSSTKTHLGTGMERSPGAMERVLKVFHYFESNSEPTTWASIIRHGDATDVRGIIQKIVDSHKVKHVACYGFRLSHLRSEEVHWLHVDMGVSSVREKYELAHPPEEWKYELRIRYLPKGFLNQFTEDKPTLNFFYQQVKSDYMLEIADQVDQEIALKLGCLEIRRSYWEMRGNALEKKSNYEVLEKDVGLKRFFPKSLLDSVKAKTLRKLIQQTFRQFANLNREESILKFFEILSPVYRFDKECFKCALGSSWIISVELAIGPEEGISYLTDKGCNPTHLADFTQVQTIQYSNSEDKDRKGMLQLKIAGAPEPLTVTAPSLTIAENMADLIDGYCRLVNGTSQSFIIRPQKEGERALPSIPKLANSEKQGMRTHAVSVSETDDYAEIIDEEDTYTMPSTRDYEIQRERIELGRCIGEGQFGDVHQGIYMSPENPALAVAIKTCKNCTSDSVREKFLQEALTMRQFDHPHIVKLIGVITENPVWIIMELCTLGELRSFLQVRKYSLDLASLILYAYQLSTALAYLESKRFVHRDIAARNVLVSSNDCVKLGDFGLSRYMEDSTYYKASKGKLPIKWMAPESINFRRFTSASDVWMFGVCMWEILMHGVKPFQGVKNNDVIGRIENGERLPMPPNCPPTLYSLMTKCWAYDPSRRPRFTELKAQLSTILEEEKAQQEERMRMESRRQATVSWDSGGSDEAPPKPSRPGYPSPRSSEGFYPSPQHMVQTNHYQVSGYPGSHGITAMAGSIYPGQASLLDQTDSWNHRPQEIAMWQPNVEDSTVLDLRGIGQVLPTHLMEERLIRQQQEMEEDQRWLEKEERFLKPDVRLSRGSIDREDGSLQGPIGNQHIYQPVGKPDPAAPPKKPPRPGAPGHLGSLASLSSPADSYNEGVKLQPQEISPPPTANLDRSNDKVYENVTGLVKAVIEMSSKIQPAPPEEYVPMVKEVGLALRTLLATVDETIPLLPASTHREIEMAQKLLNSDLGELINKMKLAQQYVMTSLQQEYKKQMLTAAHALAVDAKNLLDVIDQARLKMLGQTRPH

COc1cc(C(=O)NC2CCN(C)CC2)c(F)cc1Nc1ncc(C(F)(F)F)c(Cc2cccc3c2C(=O)N(C)C32CC2)n1 [Compound 100, 2-fluoro-5-methoxy-4-((4-((2′-methyl-3′-oxospiro[cyclopropane-1,1′-isoindolin]-4′-yl)methyl)-5-(trifluoromethyl)pyrimidin-2-yl)amino)-N-(1-methylpiperidin-4-yl)benzamide]
IC50 (FAK recombinant protein): < 0.02 µM
IC50 (PC3 cells [1]; [3]): > 2 µM
IC50 (PC3 cells [2]; Homo sapiens, PC-3, 336 h): 0.005 to 0.05 µM

COCCN1CCN(c2cc(OC)c(Nc3ncc(Br)c(Oc4cccc5c4C(=O)N(C)C54CC4)n3)cc2F)CC1 [Compound 186]
IC50 (FAK recombinant protein): < 0.02 µM
IC50 (PC3 cells [1]; [3]): > 2 µM
IC50 (PC3 cells [2]; Homo sapiens, PC-3, 336 h): < 0.005 µM

COc1cc(C(=O)N2CC3(CCN(C)CC3)C2)ccc1Nc1ncc(C(F)(F)F)c(Oc2cccc3c2C(=O)N(C)C32CC2)n1 [Compound 55]
IC50 (FAK recombinant protein): < 0.02 µM
IC50 (PC3 cells [1]; [3]): > 2 µM
IC50 (PC3 cells [2]; Homo sapiens, PC-3, 336 h): 0.005 to 0.05 µM

COc1cc(N2CC3(CCN(C)CC3)C2)c(F)cc1Nc1ncc(Cl)c(Oc2cccc3c2C(=O)N(C)C32CCOCC2)n1 [Compound 214]
IC50 (FAK recombinant protein): < 0.02 µM
IC50 (PC3 cells [1]; [3]): > 2 µM
IC50 (PC3 cells [2]; Homo sapiens, PC-3, 336 h): > 0.05 µM

COc1cc(C(=O)NC2CCC3(CC2)CCN(C)C3)c(F)cc1Nc1ncc(C(F)(F)F)c(Oc2cccc3c2C(=O)N(C)C32CC2)n1 (stereo not shown) [Compound 20]
IC50 (FAK recombinant protein): < 0.02 µM
IC50 (PC3 cells [1]; [3]): > 2 µM
IC50 (PC3 cells [2]; Homo sapiens, PC-3, 336 h): < 0.005 µM

COc1cc(N2CC(N3CCN(C)CC3)C2)ccc1Nc1ncc(Cl)c(Oc2cccc3c2C(=O)N(C)C32CC2)n1 [Compound 157, 4′-((5-chloro-2-((2-methoxy-4-(3-(4-methylpiperazin-1-yl)azetidin-1-yl)phenyl)amino)pyrimidin-4-yl)oxy)-2′-methylspiro[cyclopropane-1,1′-isoindolin]-3′-one]
IC50 (FAK recombinant protein): < 0.02 µM
IC50 (PC3 cells [1]; [3]): > 2 µM
IC50 (PC3 cells [2]; Homo sapiens, PC-3, 336 h): < 0.005 µM

COc1cc(C2CCN(C)CC2)c(F)cc1Nc1ncc(C#N)c(Oc2cccc3c2C(=O)N(C)C32CC2)n1 [Compound 199]
IC50 (FAK recombinant protein): < 0.02 µM
IC50 (PC3 cells [1]; [3]): > 2 µM
IC50 (PC3 cells [2]; Homo sapiens, PC-3, 336 h): 0.005 to 0.05 µM

COc1cc(C(=O)NC2CCN(C)CC2)c(F)cc1Nc1ncc(Cl)c(Oc2cccc3c2C(=O)N(C)C32CCCCC2)n1 [Compound 212]
IC50 (FAK recombinant protein): < 0.02 µM
IC50 (PC3 cells [1]; [3]): > 2 µM
IC50 (PC3 cells [2]; Homo sapiens, PC-3, 336 h): > 0.05 µM

CCc1cc(C(=O)NC2CC3(CCN(C)CC3)C2)ccc1Nc1ncc(C(F)(F)F)c(Oc2cccc3c2C(=O)N(C)C32CC2)n1 [Compound 52]
IC50 (FAK recombinant protein): < 0.02 µM
IC50 (PC3 cells [1]; [3]): > 2 µM
IC50 (PC3 cells [2]; Homo sapiens, PC-3, 336 h): < 0.005 µM

COc1cc(C(=O)NC2CCN(CC(N)=O)CC2)ccc1Nc1ncc(C(F)(F)F)c(Oc2cccc3c2C(=O)N(C)C32CC2)n1 [Compound 39]
IC50 (FAK recombinant protein): < 0.02 µM
IC50 (PC3 cells [1]; [3]): > 2 µM
IC50 (PC3 cells [2]; Homo sapiens, PC-3, 336 h): < 0.005 µM

COc1cc(CN2CCCC2)ccc1Nc1ncc(C(F)(F)F)c(Oc2cccc3c2C(=O)N(C)C32CC2)n1 [Compound 81]
IC50 (FAK recombinant protein): < 0.02 µM
IC50 (PC3 cells [1]; [3]): > 2 µM
IC50 (PC3 cells [2]; Homo sapiens, PC-3, 336 h): 0.005 to 0.05 µM

COc1cc(N2CCC3(CCN(C)CC3)CC2)ccc1Nc1ncc(Cl)c(Oc2cccc3c2C(=O)N(C)C32CC2)n1 [Compound 147]
IC50 (FAK recombinant protein): < 0.02 µM
IC50 (PC3 cells [1]; [3]): > 2 µM
IC50 (PC3 cells [2]; Homo sapiens, PC-3, 336 h): < 0.005 µM

COc1cc(N2CCC3C(CCN3C)C2)ccc1Nc1ncc(Cl)c(Oc2cccc3c2C(=O)N(C)C32CC2)n1 (stereo not shown) [Compound 167]
IC50 (FAK recombinant protein): < 0.02 µM
IC50 (PC3 cells [1]; [3]): > 2 µM
IC50 (PC3 cells [2]; Homo sapiens, PC-3, 336 h): 0.005 to 0.05 µM

COc1cc(C(=O)NC2CCN3CCN(C)C3C2)ccc1Nc1ncc(C(F)(F)F)c(Oc2cccc3c2C(=O)N(C)C32CC2)n1 (stereo not shown) [Compound 28]
IC50 (FAK recombinant protein): < 0.02 µM
IC50 (PC3 cells [1]; [3]): > 2 µM
IC50 (PC3 cells [2]; Homo sapiens, PC-3, 336 h): 0.005 to 0.05 µM

COc1cc(N2CCN(CC(=O)N(C)C)CC2)ccc1Nc1ncc(C(F)(F)F)c(Oc2cccc3c2C(=O)N(C)C32CC2)n1 [Compound 75, 2-(4-(3-methoxy-4-((4-((2′-methyl-3′-oxospiro[cyclopropane-1,1′-isoindolin]-4′-yl)oxy)-5-(trifluoromethyl)pyrimidin-2-yl)amino)phenyl)piperazin-1-yl)-N,N-dimethylacetamide]
IC50 (FAK recombinant protein): < 0.02 µM
IC50 (PC3 cells [1]; [3]): > 2 µM
IC50 (PC3 cells [2]; Homo sapiens, PC-3, 336 h): < 0.005 µM

COc1cc(C(=O)NC2CCC3(CC2)CN(C)C3)ccc1Nc1ncc(C(F)(F)F)c(Oc2cccc3c2C(=O)N(C)C32CC2)n1 [Compound 11]
IC50 (FAK recombinant protein): < 0.02 µM
IC50 (PC3 cells [1]; [3]): > 2 µM
IC50 (PC3 cells [2]; Homo sapiens, PC-3, 336 h): 0.005 to 0.05 µM

COc1cc(N2CCC3(CC2)CN(C)C3)ccc1Nc1ncc(C#N)c(Oc2cccc3c2C(=O)N(C)C32CC2)n1 [Compound 202]
IC50 (FAK recombinant protein): < 0.02 µM
IC50 (PC3 cells [1]; [3]): > 2 µM
IC50 (PC3 cells [2]; Homo sapiens, PC-3, 336 h): < 0.005 µM

COc1cc(C(=O)NC2CC3(CCN(C)CC3)C2)c(F)cc1Nc1ncc(Cl)c(Oc2cccc3c2C(=O)N(C)C32CCCC2)n1 [Compound 208]
IC50 (FAK recombinant protein): < 0.02 µM
IC50 (PC3 cells [1]; [3]): > 2 µM
IC50 (PC3 cells [2]; Homo sapiens, PC-3, 336 h): > 0.05 µM

COc1cc(C2CCN(C)CC2)ccc1Nc1ncc(Br)c(Oc2cccc3c2C(=O)N(C)C32CC2)n1 [Compound 179]
IC50 (FAK recombinant protein): < 0.02 µM
IC50 (PC3 cells [1]; [3]): > 2 µM
IC50 (PC3 cells [2]; Homo sapiens, PC-3, 336 h): 0.005 to 0.05 µM

COc1cc(N2CCN(C)CC2)c(F)cc1Nc1ncc(Br)c(Oc2cccc3c2C(=O)N(C)C32CC2)n1 [Compound 183]
IC50 (FAK recombinant protein): < 0.02 µM
IC50 (PC3 cells [1]; [3]): > 2 µM
IC50 (PC3 cells [2]; Homo sapiens, PC-3, 336 h): 0.005 to 0.05 µM

COc1cc(N2CCN(C)CC2)c(F)cc1Nc1ncc(C#N)c(Oc2cccc3c2C(=O)N(C)C32CC2)n1 [Compound 201]
IC50 (FAK recombinant protein): < 0.02 µM
IC50 (PC3 cells [1]; [3]): > 2 µM
IC50 (PC3 cells [2]; Homo sapiens, PC-3, 336 h): < 0.005 µM

COc1cc(N2CC(N3C4CCC3CN(C)C4)C2)ccc1Nc1ncc(Cl)c(Oc2cccc3c2C(=O)N(C)C32CC2)n1 [Compound 161]
IC50 (FAK recombinant protein): < 0.02 µM
IC50 (PC3 cells [1]; [3]): > 2 µM
IC50 (PC3 cells [2]; Homo sapiens, PC-3, 336 h): < 0.005 µM

COc1cc(N2CCC(N3CCN(C)CC3)CC2)c(F)cc1Nc1ncc(Br)c(Oc2cccc3c2C(=O)N(C)C32CC2)n1 [Compound 181]
IC50 (FAK recombinant protein): < 0.02 µM
IC50 (PC3 cells [1]; [3]): > 2 µM
IC50 (PC3 cells [2]; Homo sapiens, PC-3, 336 h): < 0.005 µM

COc1cc(N2CCOCC2)ccc1Nc1ncc(C(F)(F)F)c(Cc2cccc3c2C(=O)N(C)C32CC2)n1 [Compound 112]
IC50 (FAK recombinant protein): < 0.02 µM
IC50 (PC3 cells [1]; [3]): > 2 µM
IC50 (PC3 cells [2]; Homo sapiens, PC-3, 336 h): 0.005 to 0.05 µM

COc1cc(C(=O)NC2CCN(C)CC2)c(F)cc1Nc1ncc(C#N)c(Oc2cccc3c2C(=O)N(C)C32CC2)n1 [Compound 193]
IC50 (FAK recombinant protein): < 0.02 µM
IC50 (PC3 cells [1]; [3]): > 2 µM
IC50 (PC3 cells [2]; Homo sapiens, PC-3, 336 h): < 0.005 µM

COc1cc(C(=O)NC2CCN(C)CC2)ccc1Nc1ncc(C)c(Oc2cccc3c2C(=O)N(C)C32CC2)n1 [Compound 115]
IC50 (FAK recombinant protein): < 0.02 µM
IC50 (PC3 cells [1]; [3]): > 2 µM
IC50 (PC3 cells [2]; Homo sapiens, PC-3, 336 h): > 0.05 µM

COc1cc(N2CCN(C)CC2)ccc1Nc1ncc(Br)c(Oc2cccc3c2C(=O)N(C)C32CC2)n1 [Compound 184]
IC50 (FAK recombinant protein): < 0.02 µM
IC50 (PC3 cells [1]; [3]): > 2 µM
IC50 (PC3 cells [2]; Homo sapiens, PC-3, 336 h): 0.005 to 0.05 µM

COc1cc(C(=O)NC2CCn3ccnc3C2)ccc1Nc1ncc(C(F)(F)F)c(Oc2cccc3c2C(=O)N(C)C32CC2)n1 (stereo not shown) [Compound 31]
IC50 (FAK recombinant protein): < 0.02 µM
IC50 (PC3 cells [1]; [3]): > 2 µM
IC50 (PC3 cells [2]; Homo sapiens, PC-3, 336 h): 0.005 to 0.05 µM

COc1cc(N2CCN(CC(=O)N(C)C)CC2)c(F)cc1Nc1ncc(C(F)(F)F)c(Oc2cccc3c2C(=O)N(C)C32CC2)n1 [Compound 124]
IC50 (FAK recombinant protein): < 0.02 µM
IC50 (PC3 cells [1]; [3]): > 2 µM
IC50 (PC3 cells [2]; Homo sapiens, PC-3, 336 h): < 0.005 µM

COc1cc(N2CCN(CC(=O)N(C)C)CC2)ccc1Nc1ncc(Br)c(Oc2cccc3c2C(=O)N(C)C32CC2)n1 [Compound 187]
IC50 (FAK recombinant protein): < 0.02 µM
IC50 (PC3 cells [1]; [3]): > 2 µM
IC50 (PC3 cells [2]; Homo sapiens, PC-3, 336 h): < 0.005 µM

COc1cc(C(=O)NC2(C)CCN(C)CC2)ccc1Nc1ncc(Cl)c(Oc2cccc3c2C(=O)N(C)C32CC2)n1 [Compound 118]
IC50 (PC3 cells [1]; [3]): > 2 µM
IC50 (PC3 cells [2]; Homo sapiens, PC-3, 336 h): 0.005 to 0.05 µM

COc1cc(C(=O)NC2CCN(C)CC2)c(F)cc1Nc1ncc(Cl)c(Oc2cccc3c2C(=O)N(C)C32CCCC2)n1 [Compound 209]
IC50 (PC3 cells [1]; [3]): > 2 µM
IC50 (PC3 cells [2]; Homo sapiens, PC-3, 336 h): > 0.05 µM

COc1cc(N2CC3CCN(C)C3C2)ccc1Nc1ncc(Cl)c(Oc2cccc3c2C(=O)N(C)C32CC2)n1 (stereo not shown) [Compound 171]
IC50 (PC3 cells [1]; [4]): > 2 µM
IC50 (PC3 cells [2]): 0.005 to 0.05 µM

COc1cc(C(=O)N2CCC3(CCN(C)C3)C2)ccc1Nc1ncc(C(F)(F)F)c(Oc2cccc3c2C(=O)N(C)C32CC2)n1 (stereo not shown) [Compound 58]
IC50 (PC3 cells [1]; [4]): > 2 µM
IC50 (PC3 cells [2]): 0.005 to 0.05 µM

COc1cc(C(=O)NC2CCNCC2)ccc1Nc1ncc(C(F)(F)F)c(Oc2cccc3c2C(=O)N(C)C32CC2)n1 [Compound 35, 3-Methoxy-4-((4-((2′-methyl-3′-oxospiro[cyclopropane-1,1′-isoindolin]-4′-yl)oxy)-5-(trifluoromethyl)pyrimidin-2-yl)amino)-N-(piperidin-4-yl)benzamide]
IC50 (PC3 cells [1]; [3]): > 2 µM
IC50 (PC3 cells [2]; Homo sapiens, PC-3, 336 h): < 0.005 µM

— US20250154134A1, “COMPOUND AS FAK INHIBITOR AND USE THEREOF” (WIGEN BIOMEDICINE TECHNOLOGY (SHANGHAI) CO., LTD., priority 2022, published 2025)
